Assay results reported in patent US12624018B1, “Inhibitors of RIPK2 and medical uses thereof” (Odyssey Therapeutics, Inc., priority 2022, dated 2026).

What follows are compounds tested against T1, RIPK2 enzyme (Homo sapiens, UniProt O43353) (assay: RIPK2 inhibition (ADP-Glo Kinase Assay)). Settings: RIPK2 5 nM, ATP 150 μM, MBP substrate, read-out: RIPK2 IC50.
T1 construct: purchased Carna 09-128
Format: biochemical
In short: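 Human RIPK2 (5 nM) preincubated with compound 30 min at room temperature in 50 mM HEPES pH 7.5, 10 mM MgCl2, 2 mM DTT, 1 mM EGTA, 0.01% Brij-35, 0.05% BSA; native swine MBP as substrate. ADP formed quantified by ADP-Glo luminescence; percent inhibition relative to DMSO and no-enzyme controls.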

T1 sequence (O43353 1-299 limits assumed): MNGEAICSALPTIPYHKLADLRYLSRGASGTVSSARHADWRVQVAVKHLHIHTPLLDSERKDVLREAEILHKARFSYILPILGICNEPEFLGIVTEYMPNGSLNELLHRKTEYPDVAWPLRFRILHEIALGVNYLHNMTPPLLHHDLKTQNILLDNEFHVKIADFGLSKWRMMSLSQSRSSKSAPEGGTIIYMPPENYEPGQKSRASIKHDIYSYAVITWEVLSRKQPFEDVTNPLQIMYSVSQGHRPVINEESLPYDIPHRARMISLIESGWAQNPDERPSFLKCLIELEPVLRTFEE

| Compound | IC50 [nM] |
| --- | --- |
| Cc1cc(CC(=O)Nc2cnn(C(C)(C)C)c2)c(F)cc1Oc1ccnc2ccc(P(C)(C)=O)cc12 [Compound 381, N-(1-(tert-butyl)-1H-pyrazol-4-yl)-2-(4-((6-(dimethylphosphoryl)quinolin-4-yl)oxy)-2-fluoro-5-methylphenyl) acetamide] | < 2.5 |
| COc1cc2nccc(Oc3ccc(CC(=O)Nc4cnn(C(C)(C)C)c4)c(F)c3C)c2cc1P(C)(C)=O [Compound 382, N-(1-(tert-butyl)-1H-pyrazol-4-yl)-2-(4-((6-(dimethylphosphoryl)-7-methoxyquinolin-4-yl)oxy)-2-fluoro-3-methylphenyl) acetamide] | < 2.5 |
| Cc1c(Oc2ccnc3ccc(P(C)(C)=O)cc23)ccc(CC(=O)Nc2cc(C(C)(C)C)n[nH]2)c1F [Compound 383, N-(5-(tert-butyl)-1H-pyrazol-3-yl)-2-(4-((6-(dimethylphosphoryl)quinolin-4-yl)oxy)-2-fluoro-3-methylphenyl) acetamide] | < 2.5 |
| Cc1c(Oc2ccnc3ccc(C(=O)N4C[C@@H](C)O[C@@H](C)C4)cc23)ccc(CC(=O)Nc2cnn(C(C)(C)C)c2)c1F [Compound 384, N-(1-(tert-butyl)-1H-pyrazol-4-yl)-2-(4-((6-((2R,6S)-2,6-dimethyl-morpholine-4-carbonyl)quinolin-4-yl)oxy)-2-fluoro-3-methyl-phenyl) acetamide] | < 2.5 |
| Cc1c(Oc2ccnc3ccc(C(=O)N4C[C@@H](C)N[C@@H](C)C4)cc23)ccc(CC(=O)Nc2cnn(C(C)(C)C)c2)c1F [Compound 385, N-(1-(tert-butyl)-1H-pyrazol-4-yl)-2-(4-((6-((3R,5S)-3,5-dimethyl-piperazine-1-carbonyl)quinolin-4-yl)oxy)-2-fluoro-3-methylphenyl) acetamide] | < 2.5 |
| Cc1c(Oc2ccnc3ccc(S(=O)(=O)N4C[C@@H](C)O[C@@H](C)C4)cc23)ccc(CC(=O)Nc2cnn(C(C)(C)C)c2)c1F [Compound 386, N-(1-(tert-butyl)-1H-pyrazol-4-yl)-2-(4-((6-(((2R,6S)-2,6-dimethylmorpholino)sulfonyl)quinolin-4-yl)oxy)-2-fluoro-3-methylphenyl)acetamide] | < 2.5 |
| Cc1c(Oc2ccnc3ccc(S(=O)(=O)N4C[C@@H](C)N[C@@H](C)C4)cc23)ccc(CC(=O)Nc2cnn(C(C)(C)C)c2)c1F [Compound 387, N-(1-(tert-butyl)-1H-pyrazol-4-yl)-2-(4-((6-(((3R,5S)-3,5-dimethylpiperazin-1-yl)sulfonyl)quinolin-4-yl)oxy)-2-fluoro-3-methylphenyl)acetamide] | < 2.5 |
| Cc1cc(CC(=O)Nc2cnn(C(C)(C)C)c2)c(F)cc1Oc1ccnc2ccc(C(=O)N3C[C@@H](C)N[C@@H](C)C3)cc12 [Compound 388, N-(1-(tert-butyl)-1H-pyrazol-4-yl)-2-(4-((6-((3R,5S)-3,5-dimethyl-piperazine-1-carbonyl)quinolin-4-yl)oxy)-2-fluoro-5-methyl-phenyl) acetamide] | < 2.5 |
| Cc1cc(CC(=O)Nc2cnn(C(C)(C)C)c2)c(F)cc1Oc1ccnc2ccc(S(=O)(=O)N3C[C@@H](C)O[C@@H](C)C3)cc12 [Compound 389, N-(1-(tert-butyl)-1H-pyrazol-4-yl)-2-(4-((6-(((2R,6S)-2,6-dimethylmorpholino)sulfonyl)quinolin-4-yl)oxy)-2-fluoro-5-methylphenyl)acetamide] | 2.9 |
| Cc1cc(CC(=O)Nc2cnn(C(C)(C)C)c2)c(F)cc1Oc1ccnc2ccc(S(=O)(=O)N3C[C@@H](C)N[C@@H](C)C3)cc12 [Compound 390, N-(1-(tert-butyl)-1H-pyrazol-4-yl)-2-(4-((6-(((3R,5S)-3,5-dimethylpiperazin-1-yl)sulfonyl)quinolin-4-yl)oxy)-2-fluoro-5-methylphenyl)acetamide] | < 2.5 |
| Cc1cc(CC(=O)Nc2cnn(C(C)(C)C)c2)c(F)cc1Oc1ccnc2ccc(C(=O)NCC3COC3)cc12 [Compound 391, 4-(4-(2-((1-(tert-butyl)-1H-pyrazol-4-yl)amino)-2-oxoethyl)-5-fluoro-2-methyl-phenoxy)-N-(oxetan-3-ylmethyl) quinoline-6-carboxamide] | < 2.5 |
| Cc1cc(CC(=O)Nc2cnn(C(C)(C)C)c2)c(F)cc1Oc1ccnc2ccc(C(=O)NC3COC3)cc12 [Compound 392, 4-(4-(2-((1-(tert-butyl)-1H-pyrazol-4-yl)amino)-2-oxoethyl)-5-fluoro-2-methyl-phenoxy)-N-(oxetan-3-yl)quinoline-6-carboxamide] | < 2.5 |
| Cc1cc(CC(=O)Nc2cnn(C(C)(C)C)c2)c(F)cc1Oc1ccnc2ccc(C(=O)N[C@H]3C[C@H](O)C3)cc12 [Compound 393, 4-(4-(2-((1-(tert-butyl)-1H-pyrazol-4-yl)amino)-2-oxoethyl)-5-fluoro-2-methyl-phenoxy)-N-((1r,3r)-3-hydroxy-cyclobutyl) quinoline-6-carboxamide] | < 2.5 |
| Cc1cc(CC(=O)Nc2cnn(C(C)(C)C)c2)c(F)cc1Oc1ccnc2ccc(C(=O)N[C@H]3C[C@@H](O)C3)cc12 [Compound 394, 4-(4-(2-((1-(tert-butyl)-1H-pyrazol-4-yl)amino)-2-oxoethyl)-5-fluoro-2-methyl-phenoxy)-N-((1s,3s)-3-hydroxy-cyclobutyl) quinoline-6-carboxamide] | < 2.5 |
| Cc1cc(CC(=O)Nc2cnn(C(C)(C)C)c2)c(F)cc1Oc1ccnc2ccc(C(=O)NC3CNC3)cc12 [Compound 397, N-(azetidin-3-yl)-4-(4-(2-((1-(tert-butyl)-1H-pyrazol-4-yl)amino)-2-oxoethyl)-5-fluoro-2-methyl-phenoxy) quinoline-6-carboxamide] | < 2.5 |
| Cc1cc(CC(=O)Nc2cnn(C(C)(C)C)c2)c(F)cc1Oc1ccnc2ccc(C(=O)NC3CC(F)(F)C3)cc12 [Compound 398, 4-(4-(2-((1-(tert-butyl)-1H-pyrazol-4-yl)amino)-2-oxoethyl)-5-fluoro-2-methyl-phenoxy)-N-(3,3-difluoro-cyclobutyl) quinoline-6-carboxamide] | < 2.5 |
| Cc1c(Oc2ccnc3ccc(C(=O)NCC4COC4)cc23)ccc(CC(=O)Nc2cnn(C(C)(C)C)c2)c1F [Compound 399, 4-(4-(2-((1-(tert-butyl)-1H-pyrazol-4-yl)amino)-2-oxoethyl)-3-fluoro-2-methyl-phenoxy)-N-(oxetan-3-ylmethyl) quinoline-6-carboxamide] | < 2.5 |
| Cc1c(Oc2ccnc3ccc(C(=O)NC4COC4)cc23)ccc(CC(=O)Nc2cnn(C(C)(C)C)c2)c1F [Compound 400, 4-(4-(2-((1-(tert-butyl)-1H-pyrazol-4-yl)amino)-2-oxoethyl)-3-fluoro-2-methyl-phenoxy)-N-(oxetan-3-yl)quinoline-6-carboxamide] | < 2.5 |
| Cc1c(Oc2ccnc3ccc(C(=O)N[C@H]4C[C@H](O)C4)cc23)ccc(CC(=O)Nc2cnn(C(C)(C)C)c2)c1F [Compound 401, 4-(4-(2-((1-(tert-butyl)-1H-pyrazol-4-yl)amino)-2-oxoethyl)-3-fluoro-2-methyl-phenoxy)-N-((1r,3r)-3-hydroxy-cyclobutyl) quinoline-6-carboxamide] | < 2.5 |
| Cc1c(Oc2ccnc3ccc(C(=O)N[C@H]4C[C@@H](O)C4)cc23)ccc(CC(=O)Nc2cnn(C(C)(C)C)c2)c1F [Compound 402, 4-(4-(2-((1-(tert-butyl)-1H-pyrazol-4-yl)amino)-2-oxoethyl)-3-fluoro-2-methyl-phenoxy)-N-((1s,3s)-3-hydroxy-cyclobutyl) quinoline-6-carboxamide] | < 2.5 |
